According to patent US20110281883A1, “4-Phenyl-pyrane-3,5-diones, 4-Phenyl-thiopyrane-3,5-diones and Cyclohexanetriones and Their Use as Insecticides, Acaricides and/or Fungicides” (Bayer Cropscience AG, priority 2009, published 2011):

Tests used:
[1] = system: two spotted spidermite (Tetranychus urticae), OP-resistant; assay: Tetranychus urticae test; OP-resistant (TETRUR spray application); assay type: in vivo; settings: in Phaseolus vulgaris, 144 h, read-out: mortality in % (good activity)
Protocol: Tetranychus urticae—Test; OP-Resistant (TETRUR Spray Application)
Solvent: 78.0 parts by weight acetone • 1.5 parts by weight dimethylformamide
Emulsifier: 0.5 parts by weight alkylarylpolyglcolether
To produce a suitable preparation of active compound, 1 part by weight of active compound is mixed with the stated amount of solvent and emulsifier, and the concentrate is diluted with emulsifier-containing water to the desired concentration.French beans (Phaseolus vulgaris) which are heavily infested with all stages of the two spotted spidermite (Tetranychus urticae), are sprayed with a preparation of the active ingredient at the desired concentration. After 6 days mortality in % is determined. 100% means that all spider mites have been killed and 0% means that none of the spider mites have been killed.

[2] = system: mustard beetle larvae (Phaedon cochleariae); assay: Phaedon cochleariae test (PHAECO spray application); assay type: in vivo; settings: 168 h, application rate 500 g/ha, sprayed Chinese cabbage (Brassica pekinesis) leaf-disks, after 7 days, read-out: mortality in % (good activity)
Protocol: Phaedon cochleariae—Test; (PHAECO Spray Application)
Solvent: 78.0 parts by weight of acetone • • 1.5 parts by weight of dimethylformamide
Emulsifier: 0.5 parts by weight of alkylaryl polyglycolether
To produce a suitable preparation of active compound, 1 part by weight of active compound is mixed with the stated amount of solvent and emulsifier, and the concentrate is diluted with emulsifier-containing water to the desired concentration.Chinese cabbage (Brassica pekinesis) leaf-disks are sprayed with a preparation of the active ingredient of the desired concentration. Once dry, the leaf disks are infested with mustard beetle larvae (Phaedon cochleariae). After 7 days mortality in % is determined. 100% means that all beetle larvae have been killed and 0% means that none of the beetle larvae have been killed.

melting point	SMILES	mortality at 100 g/ha [1]	mortality at 500 g/ha [2]
165 to 167 °C	CCc1ccc(-c2ccc(F)cc2)cc1C1=C(O)[C@@]2(C)CC[C@H](O2)C1=O		
123 to 124 °C	CCc1ccc(-c2ccc(Cl)cc2)cc1C1=C(O)C(C)(C)OC(C)(COC)C1=O (centres unmarked)		
79.5 °C	CCc1ccc(-c2ccc(Cl)cc2)cc1C1=C(O)C2CCCC(C1=O)C2=O (centres unmarked)		
	CCc1ccc(-c2ccc(Cl)cc2)cc1C1=C(O)C(C)(C)C(=O)C(C)(C)C1=O [Compound B-1]	≥ 80%	> 80%
